# Measured values from ChEMBL document CHEMBL5236632, “Membrane-Active Nonivamide Derivatives as Effective Broad-Spectrum Antimicrobials: Rational Design, Synthesis, and Biological Evaluation” (J Med Chem, 2022).
# Active and inactive are the calls of the source. The calls are words filed in the database; no cut-off is given here.
# Experiments:
# Escherichia coli [1] = test: Inhibition of biofilm formation Escherichia coli ATCC 25922 assessed as decrease in biofilm formation at 0.78 ug/ml measured after 24 hrs by crystal violet staining assay; format: functional
# Escherichia coli [2] = test: Antibacterial activity against Escherichia coli ATCC 25922 assessed as bacterial regrowth at 8 time of MIC measured after 24 hrs by time kill assay; format: functional, organism-based
# Staphylococcus aureus [3] = test: Displacement of BODIPY-TR-cadaverin from Staphylococcus aureus lipoteichoic acid at 8 times of MIC incubated for 30 mins by fluorescence based analysis
# [4] = Toxicity in C57BL/6 mouse cornea assessed as corneal damage at 5 mg/ml treated topically; format: tissue-based; conditions: in vivo, topical_or_ocular, route top
# Staphylococcus aureus [5] = test: Inhibition of biofilm formation Staphylococcus aureus ATCC 29213 assessed as decrease in biofilm formation at 0.20 ug/ml measured after 24 hrs by crystal violet staining assay; format: functional
# Lipopolysaccharide (LPS) [6] = test: Displacement of BODIPY-TR-cadaverin from Escherichia coli lipopolysaccharide at 8 times of MIC incubated for 30 mins by fluorescence based analysis
# Staphylococcus aureus [7] = test: Antibacterial activity against Staphylococcus aureus ATCC 29213 assessed as inhibition of visible growth measured after 18 to 24 hrs in presence of 3220 ug/ml Na+ by broth dilution method; format: functional; conditions: time 18-24 hrs
# Staphylococcus aureus [8] = test: Antibacterial activity against Staphylococcus aureus ATCC 29213 assessed as inhibition of visible growth measured after 18 to 24 hrs in presence of 175.5 ug/ml K+ by broth dilution method; format: functional; conditions: time 18-24 hrs
# Escherichia coli [9] = test: Eradication of biofilm in Escherichia coli ATCC 25922 assessed as biofilm viability at 12.5 ug/ml measured after 24 hrs by crystal violet staining assay; format: functional; conditions: dose 12.5 µg/ml
# Staphylococcus aureus [10] = test: Antibacterial activity against methicillin-resistant Staphylococcus aureus N315 assessed as inhibition of visible growth measured after 18 to 24 hrs in presence of 175.5 ug/ml K+ by broth dilution method; format: functional; conditions: time 18-24 hrs
# Staphylococcus aureus [11] = test: Eradication of biofilm in Staphylococcus aureus ATCC 29213 assessed as biofilm viability at […] ug/ml measured after 24 hrs by crystal violet staining assay; format: functional; conditions: dose […] microg/ml, 1.56 ug/mL
# [12] = Selectivity ratio, HC50 for hemolytic activity in rabbit RBC to MIC for antibacterial activity against methicillin-resistant Staphylococcus aureus NCTC 10442; format: toxicity; conditions: rabbit red blood cells
# Lipopolysaccharide (LPS) [13] = test: Displacement of BODIPY-TR-cadaverin from Escherichia coli lipopolysaccharide at MIC concentration incubated for 30 mins by fluorescence based analysis
# Escherichia coli [14] = test: Antibacterial activity against Escherichia coli […] assessed as inhibition of visible growth measured after 18 to 24 hrs in presence of 3220 ug/ml Na+ by broth dilution method; format: functional; conditions: time 18-24 hrs
# Pseudomonas aeruginosa = test: Antibacterial activity against Pseudomonas aeruginosa ATCC 9027 assessed as inhibition of visible growth measured after 18 to 24 hrs by broth dilution method; format: functional; conditions: time 18-24 hrs
# [15] = Toxicity in C57BL/6 mouse cornea assessed as toxicity at 5 mg/ml treated topically; format: tissue-based; conditions: in vivo, topical_or_ocular, route top
# Staphylococcus aureus [16] = test: Antibacterial activity against methicillin-resistant Staphylococcus aureus N315 assessed as inhibition of visible growth measured after 18 to 24 hrs in presence of 3220 ug/ml Na+ by broth dilution method; format: functional; conditions: time 18-24 hrs
# Escherichia coli [17] = test: Antibacterial activity against Escherichia coli ATCC 25922 assessed as inhibition of visible growth measured after 18 to 24 hrs by broth dilution method; format: functional; conditions: time 18-24 hrs
# Staphylococcus aureus [18] = test: Inhibition of biofilm formation Staphylococcus aureus ATCC 29213 assessed as decrease in biofilm formation at 0.10 ug/ml measured after 24 hrs by crystal violet staining assay; format: functional
# [19] = Cytotoxicity against mouse NCTC clone 929 cells assessed as cell viability after 24 hrs incubation byCCK-8 assay; format: toxicity, cell-based
# Staphylococcus aureus [20] = test: Drug resistance development in Staphylococcus aureus ATCC 29213 assessed as fold change in MIC measured after 20 passages; format: functional
# Staphylococcus aureus [21] = test: Eradication of biofilm in Staphylococcus aureus ATCC 29213 assessed as biofilm viability at 3.13 ug/ml measured after 24 hrs by crystal violet staining assay; format: functional; conditions: dose 3.13 µg/ml
# [22] = Selectivity ratio, HC50 for hemolytic activity in rabbit RBC to MIC for antibacterial activity against Acinetobacter baumannii R2889; format: toxicity; conditions: rabbit red blood cells
# Cell membrane [23] = test: Induction of membrane integrity disruption in Staphylococcus aureus ATCC 29213 assessed as increase fluoresence intensity at 4 to 8 times of MIC measured for 60 mins by SYTOX Green uptake assay; format: subcellular
# Staphylococcus aureus [24] = test: Eradication of biofilm in Staphylococcus aureus ATCC 29213 assessed as biofilm viability at 0.20 ug/ml measured after 24 hrs by crystal violet staining assay; format: functional; conditions: dose 0.2 µg/ml
# Klebsiella pneumoniae [25] = test: Antibacterial activity against Klebsiella pneumoniae ATCC 10031 assessed as inhibition of visible growth measured after 18 to 24 hrs in presence of 100 ug/ml Ca2+ by broth dilution method; format: functional; conditions: time 18-24 hrs
# Staphylococcus aureus [26] = test: Eradication of biofilm in Staphylococcus aureus ATCC 29213 assessed as biofilm viability at 0.78 ug/ml measured after 24 hrs by crystal violet staining assay; format: functional; conditions: dose 0.78 µg/ml
# Escherichia coli [27] = test: Eradication of biofilm in Escherichia coli ATCC 25922 assessed as biofilm viability at 0.78 ug/ml measured after 24 hrs by crystal violet staining assay; format: functional; conditions: dose 0.78 µg/ml
# Escherichia coli [28] = test: Antibacterial activity against Escherichia coli […] assessed as inhibition of visible growth measured after 18 to 24 hrs in presence of 175.5 ug/ml K+ by broth dilution method; format: functional; conditions: time 18-24 hrs
# Escherichia coli [29] = test: Eradication of biofilm in Escherichia coli ATCC 25922 assessed as biofilm viability at 3.13 ug/ml measured after 24 hrs by crystal violet staining assay; format: functional; conditions: dose 3.13 µg/ml
# Klebsiella pneumoniae [30] = test: Antibacterial activity against Klebsiella pneumoniae ATCC 10031 assessed as inhibition of visible growth measured after 18 to 24 hrs in presence of 3220 ug/ml Na+ by broth dilution method; format: functional; conditions: time 18-24 hrs
# Klebsiella pneumoniae [31] = test: Antibacterial activity against Klebsiella pneumoniae ATCC 10031 assessed as inhibition of visible growth measured after 18 to 24 hrs in presence of 24.3 ug/ml Mg2+ by broth dilution method; format: functional; conditions: time 18-24 hrs
# Cell membrane [32] = test: Induction of membrane integrity disruption in methicillin-resistant Staphylococcus aureus NCTC 10442 assessed as increase fluoresence intensity at 4 to 8 times of MIC measured for 60 mins by SYTOX Green uptake assay; format: subcellular
# Staphylococcus aureus [33] = test: Antibacterial activity against Staphylococcus aureus ATCC 29213 assessed as inhibition of visible growth measured after 18 to 24 hrs in presence of 100 ug/ml Ca2+ by broth dilution method; format: functional; conditions: time 18-24 hrs
# Staphylococcus aureus [34] = test: Inhibition of biofilm formation Staphylococcus aureus ATCC 29213 assessed as decrease in biofilm formation at 0.78 ug/ml measured after 24 hrs by crystal violet staining assay; format: functional
# Staphylococcus aureus [35] = test: Displacement of BODIPY-TR-cadaverin from Staphylococcus aureus lipoteichoic acid at MIC concentration incubated for 30 mins by fluorescence based analysis
# Staphylococcus aureus [36] = test: Antibacterial activity against Staphylococcus aureus ATCC 29213 assessed as inhibition of visible growth measured after 18 to 24 hrs in presence of 24.3 ug/ml Mg2+ by broth dilution method; format: functional; conditions: time 18-24 hrs
smiles,measurement,setting,value
CCCCCCCCC(=O)NCc1ccc(OCCCCCCNC(=N)N)c(OCCCCCCNC(=N)N)c1,inhibition at 0.78 µg/mL,Escherichia coli [1],88.9%
same,Activity,Escherichia coli [2],Active
same,Activity,Staphylococcus aureus [3],38.4%
same,Activity,[4],Non-Toxic
same,inhibition at 0.2 µg/mL,Staphylococcus aureus [5],62.3%
same,Activity,Lipopolysaccharide (LPS) [6],103%
same,MIC,Staphylococcus aureus [7],0.39 µg/mL
same,MIC,Staphylococcus aureus [8],0.39 µg/mL
same,Activity,Escherichia coli [9],15.04%
same,MIC,Staphylococcus aureus [10],0.39 µg/mL
same,Activity,Staphylococcus aureus [11],36.07%
same,selectivity ratio,[12],173
same,Activity,Lipopolysaccharide (LPS) [13],56.4%
same,MIC,Escherichia coli [14],1.56 µg/mL
same,MIC,Pseudomonas aeruginosa,6.25 µg/mL
same,Activity,[15],Non-Toxic
same,MIC,Staphylococcus aureus [16],0.39 µg/mL
same,MIC,Escherichia coli [17],1.56 µg/mL
same,inhibition at 0.1 µg/mL,Staphylococcus aureus [18],34.1%
same,CC50 at 24 h,[19],35.2 µg/mL
same,fold change (FC),Staphylococcus aureus [20],<4
same,Activity,Staphylococcus aureus [21],14%
same,selectivity ratio,[22],21.6
same,Activity,Cell membrane [23],Active
same,Activity,Staphylococcus aureus [24],87.32%
same,MIC,Klebsiella pneumoniae [25],3.12 µg/mL
same,Activity,Staphylococcus aureus [26],64.77%
same,Activity,Escherichia coli [27],90.23%
same,MIC,Escherichia coli [28],1.56 µg/mL
same,Activity,Escherichia coli [29],38.07%
same,MIC,Klebsiella pneumoniae [30],1.56 µg/mL
same,MIC,Klebsiella pneumoniae [31],1.56 µg/mL
same,Activity,Cell membrane [32],Active
same,MIC,Staphylococcus aureus [33],0.39 µg/mL
same,inhibition at 0.78 µg/mL,Staphylococcus aureus [34],99.7%
same,Activity,Staphylococcus aureus [35],10.2%
same,MIC,Staphylococcus aureus [36],0.39 µg/mL
